From US10981917B2, “Heterocyclic compound, its preparation method, and pharmaceutical composition comprising the same” (Daewoong Pharmaceutical Co., Ltd., priority 2017, dated 2021)

Target: PRS (prolyl-tRNA synthetase) protein, PRS portion of EPRS (Homo sapiens (Human), UniProt P07814)
Assay: PRS enzyme activity inhibition experiment ([3H]proline, liquid scintillation)
Assay type: biochemical
Conditions: purified PRS protein, 37° C. for 5 to 10 minutes
Method: In order to confirm the biological activities of the compounds prepared in Examples, % inhibition or IC50 values of PRS enzyme ([…]) activities were calculated.
Specifically, the portion corresponding to PRS in cDNA of EPRS was subcloned, and the obtained high-purity PRS protein was purified and used in the experiment. The compounds (1 μM) prepared in Examples were added into the reaction buffer (20 mM KPO4 (pH 7.4), 6 mM MgAc, 5 mM ATP, […] tRNA, 0.5 mM DTT, […][^3H]proline (1 mCi/mL)) and allowed to react at 37° C. for 5 to 10 minutes. The reaction was terminated with 3M paper that was in advance dried by addition of 5% TCA. The radioactivity was measured using a liquid scintillation counter.
% Inhibition and IC50 values of the respective compounds were calculated and analyzed using Microsoft Excel or Sigma Plot 8.0. In Tables 1 to 3, the results are divided into A, B and C according to the range of IC50. The case where the derived IC50 is 100 nM or less is represented by “A”, the case where the IC50 is 100 to 500 nM is represented by “B”, and the case where the IC50 is 500 nM or higher is represented by “C”.

Sequence of PRS (prolyl-tRNA synthetase) protein, PRS portion of EPRS (P07814 1007-1512): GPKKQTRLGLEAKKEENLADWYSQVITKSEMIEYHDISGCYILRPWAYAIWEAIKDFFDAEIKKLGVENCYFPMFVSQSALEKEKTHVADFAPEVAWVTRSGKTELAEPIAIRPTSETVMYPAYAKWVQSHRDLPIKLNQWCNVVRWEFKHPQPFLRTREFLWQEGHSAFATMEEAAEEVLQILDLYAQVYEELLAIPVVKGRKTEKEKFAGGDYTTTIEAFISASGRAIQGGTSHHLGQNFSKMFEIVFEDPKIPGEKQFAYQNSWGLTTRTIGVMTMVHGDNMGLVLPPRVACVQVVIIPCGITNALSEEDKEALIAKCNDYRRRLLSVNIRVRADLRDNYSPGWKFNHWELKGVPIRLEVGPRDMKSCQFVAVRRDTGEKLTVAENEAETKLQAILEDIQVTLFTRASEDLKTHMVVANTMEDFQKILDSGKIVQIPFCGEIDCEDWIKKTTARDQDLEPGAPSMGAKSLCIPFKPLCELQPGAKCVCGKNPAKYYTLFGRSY

O[C@H]1CCCN[C@@H]1CCCn1cnc2ccc(Cl)cc21 [Example 1, (2R,3S)-2-(3-(6-chloro-1H-benzo[d]imidazol-1-yl)propyl)piperidin-3-ol] and O[C@H]1CCCN[C@@H]1CCCn1cnc2cc(Cl)ccc21 [Example 11, (2R,3S)-2-(3-(5-chloro-1H-benzo[d]imidazol-1-yl)propyl)piperidin-3-ol] fall in the same range of IC50: 0.1 to 0.5 µM for the first, 0.1 to 0.5 µM for the second.

O[C@H]1CCCN[C@@H]1CCCn1cnc2c(Br)cccc21 [Example 2, (2R,3S)-2-(3-(4-bromo-1H-benzo[d]imidazol-1-yl)propyl)piperidin-3-ol] and O[C@H]1CCCN[C@@H]1CCCn1cnc2c(F)cccc21 [Example 6, (2R,3S)-2-(3-(4-fluoro-1H-benzo[d]imidazol-1-yl)propyl)piperidin-3-ol] cannot be ordered by IC50: 0.1 to 0.5 µM for the first, no less than 0.5 µM for the second.

O[C@H]1CCCN[C@@H]1CCCn1cnc2cc(Br)ccc21 [Example 3, (2R,3S)-2-(3-(5-bromo-1H-benzo[d]imidazol-1-yl)propyl)piperidin-3-ol] and O[C@H]1CCCN[C@@H]1CCCn1cnc2ccc(Br)cc21 [Example 4, (2R,3S)-2-(3-(6-bromo-1H-benzo[d]imidazol-1-yl)propyl)piperidin-3-ol] cannot be ordered by IC50: no less than 0.5 µM for the first, 0.1 to 0.5 µM for the second.

O[C@H]1CCCN[C@@H]1CCCn1cnc2cccc(Br)c21 [Example 5, (2R,3S)-2-(3-(7-bromo-1H-benzo[d]imidazol-1-yl)propyl)piperidin-3-ol] and O[C@H]1CCCN[C@@H]1CCCn1cnc2cccc(F)c21 [Example 9, (2R,3S)-2-(3-(7-fluoro-1H-benzo[d]imidazol-1-yl)propyl)piperidin-3-ol] cannot be ordered by IC50: 0.1 to 0.5 µM for the first, no less than 0.5 µM for the second.

O[C@H]1CCCN[C@@H]1CCCn1cnc2cc(F)ccc21 [Example 7, (2R,3S)-2-(3-(5-fluoro-1H-benzo[d]imidazol-1-yl)propyl)piperidin-3-ol] and O[C@H]1CCCN[C@@H]1CCCn1cnc2ccc(F)cc21 [Example 8, (2R,3S)-2-(3-(6-fluoro-1H-benzo[d]imidazol-1-yl)propyl)piperidin-3-ol] cannot be ordered by IC50: 0.1 to 0.5 µM for the first, no less than 0.5 µM for the second.

O[C@H]1CCCN[C@@H]1CCCn1cnc2c(Cl)cccc21 [Example 10, (2R,3S)-2-(3-(4-chloro-1H-benzo[d]imidazol-1-yl)propyl)piperidin-3-ol] and O[C@H]1CCCN[C@@H]1CCCn1cnc2c(Cl)c(Cl)ccc21 [Example 40, (2R,3S)-2-(3-(4,5-dichloro-1H-benzo[d]imidazol-1-yl)propyl)piperidin-3-ol] cannot be ordered by IC50: 0.1 to 0.5 µM for the first, no more than 0.1 µM for the second.

O[C@H]1CCCN[C@@H]1CCCn1cnc2cccc(Cl)c21 [Example 12, (2R,3S)-2-(3-(7-chloro-1H-benzo[d]imidazol-1-yl)propyl)piperidin-3-ol] and O[C@H]1CCCN[C@@H]1CCCn1cnc2cccc(C(F)(F)F)c21 [Example 16, (2R,3S)-2-(3-(7-(trifluoromethyl)-1H-benzo[d]imidazol-1-yl)propyl)piperidin-3-ol] fall in the same range of IC50: 0.1 to 0.5 µM for the first, 0.1 to 0.5 µM for the second.

Cc1ccc2ncn(CCC[C@H]3NCCC[C@@H]3O)c2c1 [Example 13, (2R,3S)-2-(3-(6-methyl-1H-benzo[d]imidazol-1-yl)propyl)piperidin-3-ol] and Cc1ccc2c(c1)ncn2CCC[C@H]1NCCC[C@@H]1O [Example 14, (2R,3S)-2-(3-(5-methyl-1H-benzo[d]imidazol-1-yl)propyl)piperidin-3-ol] cannot be ordered by IC50: no less than 0.5 µM for the first, no less than 0.5 µM for the second.

O[C@H]1CCCN[C@@H]1CCCn1cnc2ccc(C(F)(F)F)cc21 [Example 15, (2R,3S)-2-(3-(6-(trifluoromethyl)-1H-benzo[d]imidazol-1-yl)propyl)piperidin-3-ol] and O[C@H]1CCCN[C@@H]1CCCn1cnc2cccc(OC(F)(F)F)c21 [Example 17, (2R,3S)-2-(3-(7-(trifluoromethoxy)-1H-benzo[d]imidazol-1-yl)propyl)piperidin-3-ol] cannot be ordered by IC50: 0.1 to 0.5 µM for the first, no less than 0.5 µM for the second.

O[C@H]1CCCN[C@@H]1CCCn1cnc2c(N3CCCC3)cccc21 [Example 18, (2R,3S)-2-(3-(4-(pyrrolidin-1-yl)-1H-benzo[d]imidazol-1-yl)propyl)piperidin-3-ol] and O[C@H]1CCCN[C@@H]1CCCn1cnc2c(N3CCCCC3)cccc21 [Example 19, (2R,3S)-2-(3-(4-(piperidin-1-yl)-1H-benzo[d]imidazol-1-yl)propyl)piperidin-3-ol] cannot be ordered by IC50: no less than 0.5 µM for the first, no less than 0.5 µM for the second.

O[C@H]1CCCN[C@@H]1CCCn1cnc2c(-c3cccc(F)c3)cccc21 [Example 20, (2R,3S)-2-(3-(4-(3-fluorophenyl)-1H-benzo[d]imidazol-1-yl)propyl)piperidin-3-ol] and O[C@H]1CCCN[C@@H]1CCCn1cnc2c(-c3cccc(Cl)c3)cccc21 [Example 21, (2R,3S)-2-(3-(4-(3-chlorophenyl)-1H-benzo[d]imidazol-1-yl)propyl)piperidin-3-ol] cannot be ordered by IC50: no less than 0.5 µM for the first, no less than 0.5 µM for the second.

Compared with O[C@H]1CCCN[C@@H]1CCCn1cnc2cc(-c3cccc(F)c3)ccc21 [Example 22, (2R,3S)-2-(3-(5-(3-fluorophenyl)-1H-benzo[d]imidazol-1-yl)propyl)piperidin-3-ol], O[C@H]1CCCN[C@@H]1CCCn1cnc2ccc(-c3cccc(F)c3)cc21 [Example 24, (2R,3S)-2-(3-(6-(3-fluorophenyl)-1H-benzo[d]imidazol-1-yl)propyl)piperidin-3-ol] is lower in IC50: no less than 0.5 µM for the first, no more than 0.1 µM for the second. The second is the more potent here.

O[C@H]1CCCN[C@@H]1CCCn1cnc2ccc(-c3ccccc3F)cc21 [Example 23, (2R,3S)-2-(3-(6-(2-fluorophenyl)-1H-benzo[d]imidazol-1-yl)propyl)piperidin-3-ol] and O[C@H]1CCCN[C@@H]1CCCn1cnc2ccc(-c3ccc(F)cc3)cc21 [Example 25, (2R,3S)-2-(3-(6-(4-fluorophenyl)-1H-benzo[d]imidazol-1-yl)propyl)piperidin-3-ol] cannot be ordered by IC50: 0.1 to 0.5 µM for the first, no less than 0.5 µM for the second.

O[C@H]1CCCN[C@@H]1CCCn1cnc2cccc(-c3ccccc3F)c21 [Example 26, (2R,3S)-2-(3-(7-(2-fluorophenyl)-1H-benzo[d]imidazol-1-yl)propyl)piperidin-3-ol] and O[C@H]1CCCN[C@@H]1CCCn1cnc2cccc(-c3cccc(F)c3)c21 [Example 27, (2R,3S)-2-(3-(7-(3-fluorophenyl)-1H-benzo[d]imidazol-1-yl)propyl)piperidin-3-ol] cannot be ordered by IC50: no less than 0.5 µM for the first, 0.1 to 0.5 µM for the second.

O[C@H]1CCCN[C@@H]1CCCn1cnc2cccc(-c3ccc(F)cc3)c21 [Example 28, (2R,3S)-2-(3-(7-(4-fluorophenyl)-1H-benzo[d]imidazol-1-yl)propyl)piperidin-3-ol] and O[C@H]1CCCN[C@@H]1CCCn1cnc2cccc(-c3cn[nH]c3)c21 [Example 31, (2R,3S)-2-(3-(7-(1H-pyrazol-4-yl)-1H-benzo[d]imidazol-1-yl)propyl)piperidin-3-ol] fall in the same range of IC50: 0.1 to 0.5 µM for the first, 0.1 to 0.5 µM for the second.

O[C@H]1CCCN[C@@H]1CCCn1cnc2cc(-c3cn[nH]c3)ccc21 [Example 29, (2R,3S)-2-(3-(5-(1H-pyrazol-4-yl)-1H-benzo[d]imidazol-1-yl)propyl)piperidin-3-ol] and O[C@H]1CCCN[C@@H]1CCCn1cnc2ccc(-c3cn[nH]c3)cc21 [Example 30, (2R,3S)-2-(3-(6-(1H-pyrazol-4-yl)-1H-benzo[d]imidazol-1-yl)propyl)piperidin-3-ol] cannot be ordered by IC50: no less than 0.5 µM for the first, 0.1 to 0.5 µM for the second.

O[C@H]1CCCN[C@@H]1CCCn1cnc2cc(F)c(Cl)cc21 [Example 32, (2R,3S)-2-(3-(6-chloro-5-fluoro-1H-benzo[d]imidazol-1-yl)propyl)piperidin-3-ol] and O[C@H]1CCCN[C@@H]1CCCn1cnc2cc(Cl)c(F)cc21 [Example 34, (2R,3S)-2-(3-(5-chloro-6-fluoro-1H-benzo[d]imidazol-1-yl)propyl)piperidin-3-ol] fall in the same range of IC50: 0.1 to 0.5 µM for the first, 0.1 to 0.5 µM for the second.

O[C@H]1CCCN[C@@H]1CCCn1cnc2cc(F)c(Br)cc21 [Example 33, (2R,3S)-2-(3-(6-bromo-5-fluoro-1H-benzo[d]imidazol-1-yl)propyl)piperidin-3-ol] and O[C@H]1CCCN[C@@H]1CCCn1cnc2cc(Br)c(F)cc21 [Example 35, (2R,3S)-2-(3-(5-bromo-6-fluoro-1H-benzo[d]imidazol-1-yl)propyl)piperidin-3-ol] fall in the same range of IC50: 0.1 to 0.5 µM for the first, 0.1 to 0.5 µM for the second.

O[C@H]1CCCN[C@@H]1CCCn1cnc2cc(Cl)c(Br)cc21 [Example 36, (2R,3S)-2-(3-(6-bromo-5-chloro-1H-benzo[d]imidazol-1-yl)propyl)piperidin-3-ol] and COc1cc2ncn(CCC[C@H]3NCCC[C@@H]3O)c2cc1Cl [Example 37, (2R,3S)-2-(3-(6-chloro-5-methoxy-1H-benzo[d]imidazol-1-yl)propyl)piperidin-3-ol] fall in the same range of IC50: 0.1 to 0.5 µM for the first, 0.1 to 0.5 µM for the second.

COc1cc2ncn(CCC[C@H]3NCCC[C@@H]3O)c2cc1F [Example 38, (2R,3S)-2-(3-(6-fluoro-5-methoxy-1H-benzo[d]imidazol-1-yl)propyl)piperidin-3-ol] and Cc1cc2c(cc1F)ncn2CCC[C@H]1NCCC[C@@H]1O [Example 39, (2R,3S)-2-(3-(5-fluoro-6-methyl-1H-benzo[d]imidazol-1-yl)propyl)piperidin-3-ol] cannot be ordered by IC50: no less than 0.5 µM for the first, 0.1 to 0.5 µM for the second.

O[C@H]1CCCN[C@H]1CCCn1cnc2c(Cl)c(Cl)ccc21 [Example 41, (2S,3S)-2-(3-(4,5-dichloro-1H-benzo[d]imidazol-1-yl)propyl)piperidin-3-ol] and O[C@@H]1CCCN[C@H]1CCCn1cnc2c(Cl)c(Cl)ccc21 [Example 42, (2S,3R)-2-(3-(4,5-dichloro-1H-benzo[d]imidazol-1-yl)propyl)piperidin-3-ol] cannot be ordered by IC50: no less than 0.5 µM for the first, no less than 0.5 µM for the second.
